Data from US11918555B2, “Dicarboxylic acid esters for the treatment of diseases and conditions associated with phospholipase D toxin” (priority 2020, dated 2024).

Tests used:
human RBC = assay: Hemolysis assay on human RBC (substance alone); format: cell-based
Protocol: (§1) Hemolytic activity was assessed on human RBC. The assay using human erythrocytes followed an established procedure as described in Evans, et al., “Ex vivo red blood cell hemolysis assay for the evaluation of pH-responsive endosomolytic agents for cytosolic delivery of biomacromolecular drugs,” J Vis Exp, 2013, e50166. Briefly, whole peripheral blood was drawn directly into K2-EDTA coated Vacutainer tubes and centrifuged at 500×g (relative centrifugal force). Pelleted erythrocytes were washed twice each with 150 mM NaCl and with phosphate buffered saline (PBS) and then reconstituted in 50-fold excess PBS. Immediately prior to the assay LOX was reconstituted in 20% glycerol in PBS. rPLD toxin was supplied as frozen stock in 10 mM Tris-HCl, 1 mM EDTA, 20% glycerol, was thawed on ice. The lysis assay was performed in 96-wells in a total volume of 200 ul. LOX and PLD toxin were and added as 20× concentrated stocks to the erythrocyte suspension. Triton X-100 (5% in serial dilutions to 0.04%) was used as a positive control. Incubation was performed for 60 min and the absorbance at 400 nm was measured using Tecan GENios microwell plate reader. Measurements were performed in triplicate repeats.

[1] = test system: brown recluse spider bite; assay: Topical diethyl azelate treatment of brown recluse spider bite; format: in vivo, human
Protocol: An adult subject was bitten once on their left forearm, and twice on their neck about one year later. Diethyl azelate was applied topically to the envenomation site at approximately 4 to 8 hour intervals for 14 days. Images of the affected neck area were normalized to the same size and converted to JPEG files. Inflamed red areas surrounding the bites visible as elevated lesions were outlined on the images and quantified using ImageJ software version 1.53e (ImageJ.nih.gov).

[2] = test system: Loxosceles reclusa venom (LOX); assay: Inhibition of hemolysis induced by L. reclusa venom (LOX); format: cell-based
Protocol: (§2) Lyophilized Loxosceles reclusa venom (LOX) was purchased from SpiderPharm, Yarnell, AZ Immediately prior to the assay LOX was reconstituted in 20% glycerol in PBS. Recombinant Loxosceles intermedia Phospholipase D LiSicTox-alphaIA1a full length protein expressed in E.coli (part #MBS1258368), further referred to as rPLD toxin, was purchased from MyBiosource Inc, San Diego, CA Diethyl azelate (>99% purity) was prepared as described in Streeper, el al.,“Oral Azelaic Acid Ester Decreases Markers Of Insulin Resistance In Overweight Male Human Subjects.” In Vivo (2020), 34(3), 1173-1186.
as §1

[3] = test system: Recombinant Loxosceles intermedia Phospholipase D LiSicTox-alphaIA1a (rPLD toxin); assay: Inhibition of hemolysis induced by recombinant PLD toxin; format: cell-based
Protocol: as §2, §1

| Compound | effect on hemolysis (human RBC; human erythrocytes incubated with 122 μM DEA alone) | swelling and discomfort ([1]; first incident, forearm bite, topical treatment initiated 4 hours after envenomation, by the fourth day) | arm circumference relative to pre-bite ([1]; first incident, forearm bite, topical treatment initiated 4 hours after envenomation, second day) | time of maximum inflamed red area around the bites ([1]; second incident, two neck bites, topical treatment initiated immediately, Day 2) [hours post-bite] | redness, pain and swelling ([1]; second incident, two neck bites, topical treatment initiated immediately, by Day 14) | inhibition of hemolysis by L. reclusa venom, dose dependence ([2]; FIG. 3 legend) | inhibition of enzymatic activity of PLD toxin as measured by hemolysis induced by L. reclusa spider venom ([2]; FIG. 4 legend) | inhibition of hemolysis ([2]; preincubation of DEA with LOX for 60 min followed by addition of erythrocytes (FIG. 4)) | inhibition of hemolysis ([2]; preincubation of DEA with erythrocytes for 60 min followed by addition of LOX (FIG. 4)) | inhibition of hemolysis in the presence of LOX ([2]; starting at the lowest concentration of 1 μM DEA, constant LOX concentration (FIG. 3)) | hemolysis in the presence of PLD toxin ([3]; 1 μM DEA, reduced from 78%) [%] | hemolysis in the presence of PLD toxin ([3]; 5 μM DEA) [%] | hemolysis in the presence of PLD toxin ([3]; 24 μM DEA) [%] | hemolysis in the presence of PLD toxin ([3]; 122 μM DEA) [%] | inhibition of hemolysis by recombinant L. intermedia rPLD toxin, dose dependence ([3]; FIG. 3 legend) | inhibition of enzymatic activity of PLD toxin as measured by hemolysis induced by recombinant L. intermedia rPLD toxin ([3]; FIG. 4 legend) | erythrocytes hydrolyzed (hemolysis) (human RBC; human erythrocytes incubated with 5% Triton X100, positive control) [%] |
| --- | --- | --- | --- | --- | --- | --- | --- | --- | --- | --- | --- | --- | --- | --- | --- | --- | --- |
| CCOC(=O)CCCCCCCC(=O)OCC [DEA, Diethyl azelate] | no effect on hemolysis | largely subsided | approximately twice | 26 | entirely resolved | inhibits hemolysis | directly inhibits enzymatic activity | inhibition of hemolysis | inhibition of hemolysis | significantly inhibits hemolysis | 43 | 16 | 13 | 5 | inhibits hemolysis | directly inhibits enzymatic activity | – |
| Triton X100 [reference compound] | – | – | – | – | – | – | – | – | – | – | – | – | – | – | – | – | > 95 |
